This is an account of results in patent publication US20240092759A1, “Non-Covalent Inhibitors of the Main Protease of SARS-CoV-2 and Methods of Use” (YALE UNIVERSITY, priority 2021, published 2024).

Where “and” joins values, the source holds several entries; their conditions need not be identical. Equal entries are not always repeated. Where two headings read alike, the source gives them in different places. Bounds are passed on as bounds.

Broadly, the IC50 is the concentration that inhibits the measured activity by half. What is called CC50 is the concentration that lowers cell viability or growth by half. For orientation: EC50 means the midpoint of the concentration-response curve.

The target in data set [1] is recombinant SARS-Cov-2 M^pro (Severe acute respiratory syndrome coronavirus 2 (2019-nCoV) (SARS-CoV-2), UniProt P0DTD1). Nature of the data set: biochemical.
Data set [2] concerns normal human bronchial epithelial cells (NHBE). The data set can be described thus: Cellular cytotoxicity by MTT in normal human bronchial epithelial cells. As to conditions: for CC50: read-out: CC50 NHBE, MTT.
In data set [3] the test system is Vero E6 cells. Nature of the data set: Cellular cytotoxicity by MTT in Vero E6 cells. As to conditions: for CC50: read-out: CC50 Vero E6, absence of virus.
Data set [4] has as its system infectious SARS-CoV-2 (isolate USA-WA1/2020). The data set can be described thus: Antiviral assay, cytopathic effect by MTT in Vero E6 cells. It counts as cell-based. As to conditions: Severe acute respiratory syndrome coronavirus 2, Vero C1008. (In general: Cytopathic effects are the visible damage that an infection or toxin causes in cultured cells.)
Where [5] appears, read: read-out: IC50 (μM), inhibition of SARS-CoV-2 M^pro, Table 1, 100 nM M^pro, triplicate, perampanel: fluorescence of compound interfered with assay.
Setting [6] is: read-out: IC50 (μM), inhibition of SARS-Cov-2 M^pro, Table 4.
Where [7] appears, read: IC50 (μM), inhibition of SARS-Cov-2 M^pro, Table 4.

Consider `CCCCOc1cc(Cl)cc(-c2cc(-c3c[nH]c(=O)[nH]c3=O)cn(-c3cccnc3)c2=O)c1` [Compound 25, 5-(3-(3-Butoxy-5-chlorophenyl)-2-oxo-2H-[1,3′-bipyridin]-5-yl)pyrimidine-2,4(1H,3H)-dione], for which the 50% inhibitory concentration (IC50) came to 0.25 ± 0.09 µM in data set [1] (setting [5]) and 0.25 ± 0.089 µM in data set [1] (setting [6]).
`O=c1[nH]cc(-c2cc(-c3cc(Cl)cc(OCc4c(F)cccc4F)c3)c(=O)n(-c3cccnc3)c2)c(=O)[nH]1` [Compound 36, 5-(3-(3-Chloro-5-((2,6-difluorobenzyl)oxy)phenyl)-2-oxo-2H-[1,3′-bipyridin]-5-yl)pyrimidine-2,4(1H,3H)-dione]: the half-inhibitory concentration (IC50) in data set [1] (read-out: IC50) is 0.018 to 0.037 µM; in data set [1] (setting [6]), 0.036 µM.
As to `COc1cc(CCOc2cc(Cl)cc(-c3cc(-c4ccccc4C#N)cn(-c4cccnc4)c3=O)c2)cc(OC)c1` [Compound 30], the IC50 in data set [1] (setting [6]) was greater than 1 µM.
Take `COc1ccc(-c2cc(-c3cccc(Cl)c3)c(=O)n(-c3cccnc3)c2)c(C#N)n1` [Compound 22]: the IC50 in data set [1] (setting [6]) was in the range of 10 to 100 µM.
In the case of `Cc1cccc(COc2cc(Cl)cc(-c3cc(-c4c[nH]c(=O)[nH]c4=O)cn(-c4cccnc4)c3=O)c2)c1` [Compound 32, 5-(3-(3-Chloro-5-((3-methylbenzyl)oxy)phenyl)-2-oxo-2H-[1,3′-bipyridin]-5-yl)pyrimidine-2,4(1H,3H)-dione], the half-inhibitory concentration (IC50) in data set [1] (IC50) came to 0.1 µM; in data set [1] (setting [5]), 0.11 ± 0.035 µM; in data set [1] (setting [6]), 0.11 ± 0.035 µM.
As for `CC(C)(O)CCOc1cc(Cl)cc(-c2cc(-c3c[nH]c(=O)[nH]c3=O)cn(-c3cccnc3)c2=O)c1` [Compound 28], the IC50 in data set [1] (setting [6]) fell in the range of 0.25 to 0.5 µM.
`O=c1[nH]cc(-c2cc(-c3cc(Cl)cc(OCC4CC4)c3)c(=O)n(-c3cccnc3)c2)c(=O)[nH]1` [Compound 40, 5-(3-(3-Chloro-5-(cyclopropylmethoxy)phenyl)-2-oxo-2H-[1,3′-bipyridin]-5-yl)pyrimidine-2,4(1H,3H)-dione]: the concentration for half-maximal inhibition (IC50) in data set [1] (setting [7]) was roughly 290 µM.
For the compound `O=c1[nH]cc(-c2cc(-c3cc(Cl)cc(OCc4ccsc4Cl)c3)c(=O)n(-c3cccnc3)c2)c(=O)[nH]1` [Compound 49], in data set [1] (setting [6]), the IC50 came out at 0.0265 ± 0.004 µM.
Still for that read-out and setting: next, `N#Cc1cccc(-c2cc(-c3c[nH]c(=O)[nH]c3=O)cn(-c3cccnc3)c2=O)c1` [Compound 19]: 10 µM.
Consider `N#Cc1ccccc1-c1cc(-c2cc(Cl)cc(OCCc3ccccc3)c2)c(=O)n(-c2cccnc2)c1` [Compound 17, 2-(3-(3-Chloro-5-phenethoxyphenyl)-2-oxo-2H-[1,3′-bi-pyridin]-5-yl)benzonitrile], for which the IC50 came out at 0.51 µM in data set [1] (read-out: IC50), 0.51 ± 0.02 µM in data set [1] (setting [5]) and 0.51 ± 0.015 µM in data set [1] (setting [6]).
`COc1cc(Cl)cc(-c2cc(-c3c[nH]c(=O)[nH]c3=O)cn(-c3cccnc3)c2=O)c1` [Compound 18, 5-(3-(3-Chloro-5-methoxyphenyl)-2-oxo-2H-[1,3′-bipyridin]-5-yl)pyrimidine-2,4(1H,3H)-dione]: the 50% inhibitory concentration (IC50) in data set [1] (read-out: IC50) was 1.2 µM; in data set [1] (setting [5]), 1.2 ± 0.03 µM; in data set [1] (setting [6]), 1.2 ± 0.03 µM.
As for `CCNC(=O)COc1cc(Cl)cc(-c2cc(-c3ccccc3C#N)cn(-c3cccnc3)c2=O)c1` [Compound 33], in data set [1] (setting [6]), the 50% inhibitory concentration (IC50) is 0.5 to 1 µM.
On to `N#Cc1ccccc1-c1cc(-c2cc(Cl)cc(OCC3CC3)c2)c(=O)n(-c2cccnc2)c1` [Compound 39, 2-(3-(3-Chloro-5-(cyclopropylmethoxy)phenyl)-2-oxo-2H-[1,3′-bipyridin]-5-yl)benzonitrile], for which the CC50 in data set [2] and in data set [3] was greater than 100000 nM in each case. The “cytotoxicity” value in data set [3] (Vero E6 and NHBE cells) is “no cytotoxicity to the highest concentration tested (100 μM)”. For the same compound, the EC50 in data set [4] (Vero E6 cells, MOI 0.01, 72 h, NA = not active, read-out: EC50 MTT) was 2000 ± 700 nM; in data set [4] (read-out: EC50, MTT assay), roughly 1000 nM.
For the compound `COCCOc1cc(Cl)cc(-c2cc(-c3ccccc3C#N)cn(-c3cccnc3)c2=O)c1` [Compound 16, 2-(3-(3-Chloro-5-(2-methoxyethoxy)phenyl)-2-oxo-2H-[1,3′-bipyridin]-5-yl)benzonitrile], the IC50 in data set [1] (setting [5]) and in data set [1] (setting [6]) was 0.47 ± 0.02 µM each time.
With `COc1cc(F)cc(-c2cc(-c3c[nH]c(=O)[nH]c3=O)cn(-c3cccnc3)c2=O)c1` [Compound 20], the IC50 in data set [1] (setting [6]) lay in the range of 10 to 100 µM.
In the case of `N#Cc1ccccc1-c1cc(-c2cc(Cl)cc(OCCC(F)(F)F)c2)c(=O)n(-c2cccnc2)c1` [Compound 47, 2-(3-(3-Chloro-5-(3,3,3-trifluoropropoxy)phenyl)-2-oxo-2H-[1,3′-bipyridin]-5-yl)benzonitrile], the “cytotoxicity towards the NHBE cells” value in data set [2] (compared with 39) is “more cytotoxic”. The values for the CC50 in data set [2] and in data set [3] were 25000 ± 5000 nM and 22000 ± 8000 nM, respectively.
For the compound `O=c1[nH]cc(-c2cc(-c3cc(Cl)cc(OCCc4ccccc4)c3)c(=O)n(-c3cccnc3)c2)c(=O)[nH]1` [Compound 29, 5-(3-(3-Chloro-5-phenethoxyphenyl)-2-oxo-2H-[1,3′-bipyridin]-5-yl)pyrimidine-2,4(1H, 3H)-dione], the values for the IC50 in data set [1] (read-out: IC50) and in data set [1] (setting [5]) were 0.11 µM and 0.11 ± 0.013 µM, respectively.
Regarding `CC(C)CCOc1cc(Cl)cc(-c2cc(-c3c[nH]c(=O)[nH]c3=O)cn(-c3cccnc3)c2=O)c1` [Compound 26, 5-(3-(3-Chloro-5-(isopentyloxy)phenyl)-2-oxo-2H-[1,3′-bipyridin]-5-yl)pyrimidine-2,4(1H, 3H)-dione], the figures for the IC50 in data set [1] (setting [5]) and in data set [1] (setting [6]) were 0.19 ± 0.03 µM and 0.19 ± 0.026 µM, respectively.
Turning to `N#Cc1ccccc1-c1cc(-c2cccc(Cl)c2)c(=O)n(-c2ccc[n+]([O-])c2)c1` [Compound 10], in data set [1] (setting [6]), the IC50 was 15.6 ± 2.37 µM.
As for `N#Cc1ccccc1-c1cc(-c2cc(Cl)cc(Cl)c2)c(=O)n(-c2ccc[n+]([O-])c2)c1` [Compound 11], the half-maximal inhibitory concentration (IC50) in data set [1] (setting [6]) is 5 to 20 µM.
With `O=c1[nH]cc(-c2cc(-c3cc(Cl)cc(OCc4ccccc4F)c3)c(=O)n(-c3cccnc3)c2)c(=O)[nH]1` [Compound 34, 5-(3-(3-Chloro-5-((2-fluorobenzyl)oxy)phenyl)-2-oxo-2H-[1,3′-bipyridin]-5-yl)pyrimidine-2,4(1H,3H)-dione], the half-maximal inhibitory concentration (IC50) in data set [1] (read-out: IC50) is 0.018 to 0.037 µM; in data set [1] (setting [5]), 0.024 ± 0.007 µM; in data set [1] (setting [6]), 0.024 µM.
Consider `CCC(CC)COC(=O)[C@H](C)N[P@](=O)(OC[C@H]1O[C@@](C#N)(c2ccc3c(N)ncnn23)[C@H](O)[C@@H]1O)Oc1ccccc1` [remdesivir, reference compound], for which the half-maximal cytotoxic concentration (CC50) amounted to 41000 ± 2000 nM in data set [2] and 72000 ± 28000 nM in data set [3].
Regarding `O=c1[nH]cc(-c2cc(-c3cc(F)c(F)c(OCc4ccccc4F)c3)c(=O)n(-c3cccnc3)c2)c(=O)[nH]1` [Compound 45], the IC50 in data set [1] (setting [6]) was 0.03 ± 0.004 µM.
In the case of `N#Cc1ccccc1-c1cc(-c2cc(Cl)cc(OCc3ccccc3)c2)c(=O)n(-c2cccnc2)c1` [Compound 14, 2-(3-(3-(Benzyloxy)-5-chlorophenyl)-2-oxo-2H-[1,3′-bipyridin]-5-yl)benzonitrile], the values for the IC50 in data set [1] (read-out: IC50), in data set [1] (setting [5]) and in data set [1] (setting [6]) were 0.28 µM, 0.28 ± 0.05 µM and 0.28 ± 0.05 µM, respectively.
For the compound `O=c1[nH]cc(-c2cc(-c3cc(Cl)cc(OCc4cccc(F)c4)c3)c(=O)n(-c3cccnc3)c2)c(=O)[nH]1` [Compound 35, 5-(3-(3-Chloro-5-((3-fluorobenzyl)oxy)phenyl)-2-oxo-2H-[1,3′-bipyridin]-5-yl)pyrimidine-2,4(1H,3H)-dione], the half-maximal inhibitory concentration (IC50) is 0.018 to 0.037 µM in data set [1] (read-out: IC50) and 0.037 µM in data set [1] (setting [6]).
For the compound `N#Cc1[nH]c(=O)ccc1-c1cc(-c2cccc(Cl)c2)c(=O)n(-c2cccnc2)c1` [Compound 23], in data set [1] (setting [6]), the half-maximal inhibitory concentration (IC50) was determined as 10 µM.
Turning to `O=c1[nH]cc(-c2cc(-c3cccc(Cl)c3)c(=O)n(-c3cccnc3)c2)c(=O)[nH]1` [Compound 8, 5-(3-(3-Chlorophenyl)-2-oxo-2H-[1,3′-bipyridin]-5-yl)pyrimidine-2,4(1H,3H)-dione], the half-maximal inhibitory concentration (IC50) worked out at 6.4 µM in data set [1] (read-out: IC50) and 6.38 ± 1.21 µM in data set [1] (setting [6]).
As for `N#Cc1ccccc1-c1cc(-c2cccc(Cl)c2)c(=O)n(-c2cccnc2)c1` [Compound 6, 2-(3-(3-Chlorophenyl)-2-oxo-2H-[1,3′-bipyridin]-5-yl)benzonitrile], the IC50 in data set [1] (read-out: IC50) came out at 10 µM; in data set [1] (setting [5]), 9.99 ± 2.5 µM.
Take `Cc1ccccc1COc1cc(Cl)cc(-c2cc(-c3c[nH]c(=O)[nH]c3=O)cn(-c3cccnc3)c2=O)c1` [Compound 31, 5-(3-(3-Chloro-5-((2-methylbenzyl)oxy)phenyl)-2-oxo-2H-[1,3′-bipyridin]-5-yl)pyrimidine-2,4(1H,3H)-dione]: the IC50 came to 0.11 µM in data set [1] (IC50) and 0.1 ± 0.007 µM in data set [1] (setting [5]).
Take `O=c1[nH]cc(-c2cc(-c3cc(Cl)cc(OCC4CC4)c3)c(=O)n(-c3cccnc3)c2)c(=O)[nH]1` [Compound 43]: in data set [1] (setting [6]), the 50% inhibitory concentration (IC50) was found to be 0.037 ± 0.004 µM.
`N#Cc1ccccc1-c1cc(-c2ccccn2)cn(-c2ccccc2)c1=O` [Perampanel, perampanel, reference compound]: the half-inhibitory concentration (IC50) in data set [1] (IC50) is 100 to 250 µM and > 100 µM; in data set [1] (IC50 (μM), inhibition of SARS-CoV-2 M^pro, Table 1, 100 nM M^pro, triplicate, perampanel: fluorescence of compound interfered with assay), 100 to 250 µM; in data set [1] (setting [7]), 100 µM.
Turning to `O=c1[nH]cc(-c2cc(-c3cc(Cl)cc(OCc4ccccc4)c3)c(=O)n(-c3cccnc3)c2)c(=O)[nH]1` [Compound 21], the concentration for half-maximal inhibition (IC50) was 0.128 µM in data set [1] (read-out: IC50) and 0.128 ± 0.015 µM in data set [1] (setting [6]).
